± gives the expanded uncertainty stated by the source.
Settings: Liquid, Ebulliometric method (Recirculating still)

| vapor or sublimation pressure (110.01 K) | vapor or sublimation pressure (112.98 K) | vapor or sublimation pressure (114.99 K) | vapor or sublimation pressure (115.07 K) | vapor or sublimation pressure (117 K) | vapor or sublimation pressure (118.99 K) | vapor or sublimation pressure (120.11 K) | vapor or sublimation pressure (120.96 K) | vapor or sublimation pressure (123.01 K) | vapor or sublimation pressure (130.15 K) | vapor or sublimation pressure (135.09 K) | SMILES |
| --- | --- | --- | --- | --- | --- | --- | --- | --- | --- | --- | --- |
| 88.2 ± 1.4 kPa | 112.74 ± 1.4 kPa | 132.11 ± 1.4 kPa | 134.08 ± 1.3 kPa | 153.92 ± 1.4 kPa | 178.11 ± 1.5 kPa | 194.65 ± 1.3 kPa | 204.78 ± 1.5 kPa | 235.61 ± 1.6 kPa | 374.77 ± 1.4 kPa | 496.11 ± 1.4 kPa | C [methane] |
| 1466.7 ± 6 kPa | 1735.2 ± 7 kPa | 1936 ± 7.8 kPa |  | 2153.3 ± 8.7 kPa | 2385.7 ± 9.6 kPa |  | 2633.9 ± 11 kPa | 2913 ± 12 kPa |  |  | N#N [nitrogen] |

Reference: the NIST ThermoML archive (doi:10.1021/je201299u)
